Structures are written as SMILES.

The test system of data set [1] is NCI-H460 tumor. Description: In vivo biodistribution in NCI-H460 tumor bearing mice. Particulars: for T/Blood / T/Muscle: 1 h post injection. As to the method: (§1) To test the pharmacokinetic properties of compounds from the present invention, all F18-labeled compounds were examined by biodistribution studies in NCI-H460 tumor bearing mice. Female NMRI (nu/nu) mice were inoculated with 5×10^6 NCI-H460 tumor cells 8 to 10 days before the biodistribution studies. 185 kBq of activity of the fluorinated compound was injected and at least n=3 mice were used for every time point. After injection of the F18-labeled compound, mice were sacrificed at defined time-points. All organs were removed and radioactivity was determined using a γ-counter.
To compare the tumor uptake and retention of radioactivity of different ^18F-labeled derivatives from the present invention, biodistribution studies were performed in NCI-H460 tumor bearing NMRI (nu/nu) mice as described above.
To compare the kidney clearance of several ^18F-labeled derivatives from the present invention, biodistribution studies were performed in NCI-H460 tumor bearing female NMRI (nu/nu) mice as described above. […] After 2 h p.i., less than 1% ID/g can be found in the kidneys.
For comparison of pancreas uptake and clearance of several ^18F-labeled derivatives from the present invention, biodistribution studies were performed in NCI-H460 tumor bearing NMRI (nu/nu) mice as described above. […] After 2 h p.i., less than 2% ID/g can be found in the pancreas.
as §1, with “and” for “for every time point. After injection of the F18-labeled compound, mice were”, “time-points raning from 15 min pi up to 2 h p.i.” for “time-points.”, “γ-counter. […] High tumor uptake values of >3% ID/g were obtained with various compounds from the present invention.” for “γ-counter.”

Data set [2] concerns NCI-H460 tumor. In words: PET imaging in NCI-H460 tumor bearing nude-rats. Format: in vivo. The conditions noted are these: PET ROI analysis, 1 h p.i. On the procedure: c) Beside PET-imaging studies in mice, also the imaging properties of [^18F]-12 in rats were examined. NCI-H460 tumor cells were inoculated into the right flank of nude-rats (RH-Foxn1 nu/nu) 8 to 10 days before the PET study. PET images were acquired at 60 min after injection of approximately 10 MBq for 10 minutes. The H460 tumor was nicely visible (0.9% ID/g as determined by ROI analysis). Beside some minor uptake into the liver and kidneys due to the excretion of the compound, no uptake into other non-target tissues was observed.
To test the imaging properties, compounds from the present invention were evaluated in PET imaging studies using tumor bearing rats. NCI-H460 tumor cells were inoculated into the right flank of nude-rats (RH-Foxn1 nu/nu) 8 to 10 days before the PET study. PET images were acquired at 60 min after injection of approximately 10 MBq for 10 minutes. After the imaging study, region-of-interest (ROI) analysis was performed and activity in tumor, liver and kidney was determined. […] High tumor uptake values of >1% […] in this rat model were obtained with various compounds from the present invention. A favorable clearance profile of all compounds enables excellent tumor detection in PET imaging studies in tumor bearing rats.

Regarding `N[C@@H](CC(Cc1ccc(OCC[18F])nc1)C(=O)O)C(=O)O` (stereo partly drawn) [[^18F]-56, 4-({6-[2-(^18F)fluoroethoxy]pyridin-3-yl}methyl)-L-glutamic acid], in the data set with NCI-H460 tumor [1], the “Kidney (% ID/g at 1 h p.i.)” value came to 5.2 ± 1.1 % ID/g, the “Liver (% ID/g at 1 h p.i.)” value amounted to 0.7 ± 0.2 % ID/g, the “Pancreas (% ID/g at 1 h p.i.)” value was found to be 0.2 ± 0.03 % ID/g and the “Tumor (% ID/g at 1 h p.i.)” value turned out to be 1.0 ± 0.1 % ID/g. For the same molecule, in the data set on NCI-H460 tumor [1], the “Urine (% ID at 1 h p.i.)” value came out at 77 ± 6.7 % ID, the T/Blood is given as 9.9 and the T/Muscle turned out to be 25.
On to `N[C@@H](C[C@H](Cc1ccc(OC[18F])cc1)C(=O)O)C(=O)O` [[^18F]-48, (4S)-4-{4-[(^18F)fluoromethoxy]benzyl}-L-glutamic acid], for which, in the data set on NCI-H460 tumor [2], the “Kidney (% ID/g at 1 h p.i.)” value is reported as 0.9 % ID/g, the “Liver (% ID/g at 1 h p.i.)” value is on record as 0.2 % ID/g, the “Tumor (Max % ID/g at 1 h p.i.)” value is 1.6 % ID/g and the “Tumor (Mean % ID/g at 1 h p.i.)” value was 0.8 % ID/g. Also, in the data set on NCI-H460 tumor [1], the “Kidney (% ID/g at 1 h p.i.)” value was determined as 1.8 ± 0.4 % ID/g, the “Liver (% ID/g at 1 h p.i.)” value worked out at 0.2 ± 0.08 % ID/g, the “Pancreas (% ID/g at 1 h p.i.)” value was 0.8 ± 0.1 % ID/g and the “Tumor (% ID/g at 1 h p.i.)” value was 2.8 ± 1.4 % ID/g. In addition, in the data set on NCI-H460 tumor [1], the “Urine (% ID at 1 h p.i.)” value is 79 ± 7.8 % ID, the T/Blood amounted to 23.3 and the T/Muscle was 30.4.
Take `N[C@@H](CCC(Cc1ccc(OC[18F])cc1)C(=O)O)C(=O)O` (single isomer, unassigned) [[^18F]-41 C5-1]: in the data set on NCI-H460 tumor [2], the “Kidney (% ID/g at 1 h p.i.)” value came to 0.5 % ID/g, the “Liver (% ID/g at 1 h p.i.)” value was 0.4 % ID/g, the “Tumor (Max % ID/g at 1 h p.i.)” value came to 3.2 % ID/g and the “Tumor (Mean % ID/g at 1 h p.i.)” value turned out to be 1.2 % ID/g. Besides, in the data set on NCI-H460 tumor [1], the “Kidney (% ID/g at 1 h p.i.)” value is given as 3.5 ± 0.7 % ID/g, the “Liver (% ID/g at 1 h p.i.)” value was found to be 0.3 ± 0.1 % ID/g, the “Pancreas (% ID/g at 1 h p.i.)” value was found to be 2.2 ± 0.3 % ID/g and the “Tumor (% ID/g at 1 h p.i.)” value came to 6.4 ± 1.4 % ID/g. Further, in the data set with NCI-H460 tumor [1], the “Urine (% ID at 1 h p.i.)” value is listed as 85.0 ± 7.7 % ID, the T/Blood was determined as 23.4 and the T/Muscle is given as 94.2.
For the molecule `N[C@@H](CC(Cc1ccc(OCC[18F])c[n+]1[O-])C(=O)O)C(=O)O` (stereo partly drawn) [[^18F]-35, 4-{[5-(2-[^18F]fluoroethoxy)-1-oxidopyridin-2-yl]methyl}-L-glutamic acid], in the data set on NCI-H460 tumor [2], the “Kidney (% ID/g at 1 h p.i.)” value is recorded as 3.1 % ID/g, the “Liver (% ID/g at 1 h p.i.)” value came to 0.2 % ID/g, the “Tumor (Max % ID/g at 1 h p.i.)” value amounted to 0.5 % ID/g and the “Tumor (Mean % ID/g at 1 h p.i.)” value stood at 0.2 % ID/g.
With `N[C@@H](CC(Cc1ccc(OCC[18F])c(O)c1)C(=O)O)C(=O)O` (stereo partly drawn) [[^18F]-44, 4-[4-(2-[^18F]fluoroethoxy)-3-hydroxybenzyl]-L-glutamic acid], in the data set on NCI-H460 tumor [1], the “Kidney (% ID/g at 1 h p.i.)” value was found to be 2.5 ± 0.7 % ID/g, the “Liver (% ID/g at 1 h p.i.)” value is listed as 0.95 ± 0.1 % ID/g, the “Pancreas (% ID/g at 1 h p.i.)” value worked out at 1.2 ± 0.1 % ID/g and the “Tumor (% ID/g at 1 h p.i.)” value was found to be 3.3 ± 1.2 % ID/g. In the data set on NCI-H460 tumor [1], the “Urine (% ID at 1 h p.i.)” value turned out to be 80.6 ± 10.1 % ID, the T/Blood was 28.2 and the T/Muscle turned out to be 71.1.
In the case of `N[C@@H](CC(Cc1ccc(OC[C@H](O)[C@@H](O)C[18F])cc1)C(=O)O)C(=O)O` (stereo partly drawn) [[^18F]-58, 4-(4-{[(2S,3R)-4-(^18F)fluoro-2,3-dihydroxybutyl]oxy}benzyl)-L-glutamic acid], in the data set on NCI-H460 tumor [2], the “Kidney (% ID/g at 1 h p.i.)” value is 4.6 % ID/g, the “Liver (% ID/g at 1 h p.i.)” value is 1.7 % ID/g, the “Tumor (Max % ID/g at 1 h p.i.)” value is recorded as 0.63 % ID/g and the “Tumor (Mean % ID/g at 1 h p.i.)” value came to 0.3 % ID/g.
As to `N[C@@H](CC(Cc1ccc(OCC[18F])cn1)C(=O)O)C(=O)O` (some centres unmarked) [[^18F]-17], in the data set with NCI-H460 tumor [2], the “Kidney (% ID/g at 1 h p.i.)” value was 2.4 % ID/g, the “Liver (% ID/g at 1 h p.i.)” value is reported as 0.9 % ID/g, the “Tumor (Max % ID/g at 1 h p.i.)” value is on record as 2.6 % ID/g and the “Tumor (Mean % ID/g at 1 h p.i.)” value is given as 1.2 % ID/g.
For the molecule `N[C@@H](CCC(Cc1ccc(OCC[18F])cc1)C(=O)O)C(=O)O` (stereo partly drawn) [[^18F]-12 C5-1] [(2S)-2-amino-5-[4-([^18F]fluoroethoxy)benzyl]hexanedioic acid], in the data set with NCI-H460 tumor [2], the “Kidney (% ID/g at 1 h p.i.)” value is given as 0.8 % ID/g, the “Liver (% ID/g at 1 h p.i.)” value stood at 1.2 % ID/g, the “Tumor (Max % ID/g at 1 h p.i.)” value is 3.4 % ID/g and the “Tumor (Mean % ID/g at 1 h p.i.)” value was found to be 1.3 % ID/g.
`N[C@@H](CCC(Cc1ccc(NCC[18F])cc1)C(=O)O)C(=O)O` (stereo partly drawn) [[^18F]-52, (2S)-2-amino-5-(4-{[2-(^18F)fluoroethyl]amino}benzyl)hexanedioic acid]: in the data set with NCI-H460 tumor [1], the “Kidney (% ID/g at 1 h p.i.)” value turned out to be 3.5 ± 1.1 % ID/g, the “Liver (% ID/g at 1 h p.i.)” value is listed as 2.6 ± 0.4 % ID/g, the “Pancreas (% ID/g at 1 h p.i.)” value worked out at 7.5 ± 1.1 % ID/g and the “Tumor (% ID/g at 1 h p.i.)” value was determined as 8.2 ± 2.1 % ID/g. Besides, in the data set with NCI-H460 tumor [1], the “Urine (% ID at 1 h p.i.)” value is recorded as 66.8 ± 10.3 % ID, the T/Blood was 32.5 and the T/Muscle was 95.4. In the data set on NCI-H460 tumor [1] (mouse, in vivo), the “tumor uptake and retention (summary statement)” value is “high tumor uptake and retention”.
Regarding `N[C@@H](CC(Cc1ccc(OC(CO)C[18F])cc1)C(=O)O)C(=O)O` (stereo partly drawn) [[^18F]-60, 4-(4-{[1-(^18F)fluoro-3-hydroxypropan-2-yl]oxy}benzyl)-L-glutamic acid], in the data set on NCI-H460 tumor [2], the “Kidney (% ID/g at 1 h p.i.)” value is on record as 2.2 % ID/g, the “Liver (% ID/g at 1 h p.i.)” value turned out to be 0.9 % ID/g, the “Tumor (Max % ID/g at 1 h p.i.)” value was determined as 2.2 % ID/g and the “Tumor (Mean % ID/g at 1 h p.i.)” value is 1.0 % ID/g.
For `N[C@@H](CC(Cc1ccc(C[18F])cc1)C(=O)O)C(=O)O` (stereo partly drawn) [[^18F]-66, 4-{4-[(^18F)fluoromethyl]benzyl}-L-glutamic acid], in the data set on NCI-H460 tumor [2], the “Kidney (% ID/g at 1 h p.i.)” value is recorded as 2.9 % ID/g, the “Liver (% ID/g at 1 h p.i.)” value amounted to 1.7 % ID/g, the “Tumor (Max % ID/g at 1 h p.i.)” value is reported as 1.3 % ID/g and the “Tumor (Mean % ID/g at 1 h p.i.)” value worked out at 0.7 % ID/g.
For the molecule `N[C@@H](C[C@@H](Cc1ccc(OC[18F])cc1)C(=O)O)C(=O)O` [[^18F]-50, (4R)-4-{4-[(^18F)fluoromethoxy]benzyl}-L-glutamic acid], in the data set on NCI-H460 tumor [2], the “Kidney (% ID/g at 1 h p.i.)” value is 1.0 % ID/g, the “Liver (% ID/g at 1 h p.i.)” value was determined as 0.2 % ID/g, the “Tumor (Max % ID/g at 1 h p.i.)” value amounted to 2.4 % ID/g and the “Tumor (Mean % ID/g at 1 h p.i.)” value amounted to 1.1 % ID/g.
Regarding `N[C@@H](CCC(Cc1ccc(OCC[18F])cn1)C(=O)O)C(=O)O` (stereo partly drawn) [[^18F]-32, (2S)-2-Amino-5-{[5-(2-[^18F]fluoroethoxy)pyridin-2-yl]methyl}hexanedioic acid], in the data set with NCI-H460 tumor [1], the “Kidney (% ID/g at 1 h p.i.)” value turned out to be 3.9 ± 1.0 % ID/g, the “Liver (% ID/g at 1 h p.i.)” value worked out at 2.3 ± 0.2 % ID/g, the “Pancreas (% ID/g at 1 h p.i.)” value is given as 0.7 ± 0.1 % ID/g and the “Tumor (% ID/g at 1 h p.i.)” value was found to be 2.3 ± 0.9 % ID/g. In the data set on NCI-H460 tumor [1], the “Urine (% ID at 1 h p.i.)” value stood at 81.0 ± 7.5 % ID, the T/Blood stood at 17.9 and the T/Muscle is 23.5.
Consider `N[C@@H](CCC(Cc1ccc(OCC[18F])cc1)C(=O)O)C(=O)O` (stereo partly drawn) [[^18F]-12 C5-2] [(2S)-2-amino-5-[4-(fluoroethoxy)benzyl]hexanedioic acid], for which, in the data set with NCI-H460 tumor [2], the “Kidney (% ID/g at 1 h p.i.)” value was found to be 0.4 % ID/g, the “Liver (% ID/g at 1 h p.i.)” value is listed as 0.5 % ID/g, the “Tumor (Max % ID/g at 1 h p.i.)” value worked out at 3.7 % ID/g and the “Tumor (Mean % ID/g at 1 h p.i.)” value stood at 1.6 % ID/g.

For the origin of these results see patent US9238631B2, “Radiolabeled amino acids for diagnostic imaging” (PIRAMAL IMAGING SA, priority 2011, dated 2016).
